Experimental findings from patent US9371280B2, “Substituted pyrrolidine-2-carboxamides” (Hoffmann-La Roche Inc., priority 2012, dated 2016) are described below.

pIC50: −log10 of the molar value. Where a name gives a salt, the structure may show the parent alone.

For the experiment, the target named is interaction between p53 and MDM2 proteins (recombinant GST-tagged MDM2) (Homo sapiens, UniProt Q00987). The experiment can be described thus: HTRF assay of inhibition of the p53-MDM2 interaction (GST-MDM2 / biotinylated p53 peptide).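 Also: FRET read-out from Eu-labelled anti-GST antibody to streptavidin-APC, with 90 nM N-terminally biotinylated p53 peptide and 160 ng/ml GST-MDM2 in Tris-borate saline containing 1 mM DTT, 384-well format.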 The experiment is classed as binding. Conditions: HTRF, 0.02% BSA, 37° C. 1 h. On the technique in general: Time-resolved FRET reads energy transfer from a long-lived donor to a nearby acceptor.
interaction between p53 and MDM2 proteins (recombinant GST-tagged MDM2), sequence (Q00987 whole entry): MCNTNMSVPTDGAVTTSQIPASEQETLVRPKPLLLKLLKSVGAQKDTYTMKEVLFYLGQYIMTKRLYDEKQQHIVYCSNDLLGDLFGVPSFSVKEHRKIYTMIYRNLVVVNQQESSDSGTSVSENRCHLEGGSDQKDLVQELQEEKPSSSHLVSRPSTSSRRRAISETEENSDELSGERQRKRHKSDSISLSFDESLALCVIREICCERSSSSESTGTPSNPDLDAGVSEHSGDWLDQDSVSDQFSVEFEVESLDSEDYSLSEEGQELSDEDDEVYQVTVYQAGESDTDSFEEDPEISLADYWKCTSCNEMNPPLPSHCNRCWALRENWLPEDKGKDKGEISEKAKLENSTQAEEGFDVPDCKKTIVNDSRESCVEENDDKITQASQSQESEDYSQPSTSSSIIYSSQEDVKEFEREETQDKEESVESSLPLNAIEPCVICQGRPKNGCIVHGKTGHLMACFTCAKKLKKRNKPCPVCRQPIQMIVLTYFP

For orientation: pIC50 means the IC50 on a negative log10 scale, so that one unit is a factor of ten. For the molecule `COc1cc(C(=O)OCC(=O)N2CCN(C)CC2)ccc1NC(=O)[C@@H]1N[C@@H](CC(C)(C)C)[C@](C#N)(c2ccc(Cl)cc2F)[C@H]1c1cccc(Cl)c1F` [Example 64, 4-{[(2R,3S,4R,5S)-4-(4-Chloro-2-fluoro-phenyl)-3-(3-chloro-2-fluoro-phenyl)-4-cyano-5-(2,2-dimethyl-propyl)-pyrrolidine-2-carbonyl]-amino}-3-methoxy-benzoic acid 2-(4-methyl-piperazin-1-yl)-2-oxo-ethyl ester, hydrochloride], the pIC50 is 7.94. The result for `CCN(CC)CCNC(=O)c1ccc(NC(=O)[C@@H]2N[C@@H](CC(C)(C)C)[C@](C#N)(c3ccc(Cl)cc3F)[C@H]2c2cccc(Cl)c2F)c(OC)c1` [Example 23, (2R,3S,4R,5S)-4-(4-Chloro-2-fluoro-phenyl)-3-(3-chloro-2-fluoro-phenyl)-4-cyano-5-(2,2-dimethyl-propyl)-pyrrolidine-2-carboxylic acid [4-(2-diethylamino-ethylcarbamoyl)-2-methoxy-phenyl]-amide, hydrochloride] reads 8.03; that for `COc1cc(C(=O)OCCOCCOCCO)ccc1NC(=O)[C@@H]1N[C@@H](CC(C)(C)C)[C@](C#N)(c2ccc(Cl)cc2F)[C@H]1c1cccc(Cl)c1F` [Example 47, 4-{[(2R,3S,4R,5S)-4-(4-Chloro-2-fluoro-phenyl)-3-(3-chloro-2-fluoro-phenyl)-4-cyano-5-(2,2-dimethyl-propyl)-pyrrolidine-2-carbonyl]-amino}-3-methoxy-benzoic acid 2-[2-(2-hydroxy-ethoxy)-ethoxy]-ethyl ester, hydrochloride], 8.08; that for `COc1cc(C(=O)OCC(=O)N(C)C)ccc1NC(=O)[C@@H]1N[C@@H](CC(C)(C)C)[C@](C#N)(c2ccc(Cl)cc2F)[C@H]1c1cccc(Cl)c1F` [Example 24, 4-{[(2R,3S,4R,5S)-4-(4-Chloro-2-fluoro-phenyl)-3-(3-chloro-2-fluoro-phenyl)-4-cyano-5-(2,2-dimethyl-propyl)-pyrrolidine-2-carbonyl]-amino}-3-methoxy-benzoic acid dimethylcarbamoylmethyl ester, hydrochloride], 7.86. `COc1cc(C(=O)OCC2CCN(C)CC2)ccc1NC(=O)[C@@H]1N[C@@H](CC(C)(C)C)[C@](C#N)(c2ccc(Cl)cc2F)[C@H]1c1cccc(Cl)c1F` [Example 18, 4-{[(2R,3S,4R,5S)-4-(4-Chloro-2-fluoro-phenyl)-3-(3-chloro-2-fluoro-phenyl)-4-cyano-5-(2,2-dimethyl-propyl)-pyrrolidine-2-carbonyl]-amino}-3-methoxy-benzoic acid 1-methyl-piperidin-4-ylmethyl ester]: the pIC50 was 7.62.

Consider `COc1cc(C(=O)OCCN2CCOCC2)ccc1NC(=O)[C@@H]1N[C@@H](CC(C)(C)C)[C@](C#N)(c2ccc(Cl)cc2F)[C@H]1c1cccc(Cl)c1F` [Example 22, 4-{[(2R,3S,4R,5S)-4-(4-Chloro-2-fluoro-phenyl)-3-(3-chloro-2-fluoro-phenyl)-4-cyano-5-(2,2-dimethyl-propyl)-pyrrolidine-2-carbonyl]-amino}-3-methoxy-benzoic acid 2-morpholin-4-yl-ethyl ester], for which the pIC50 was 7.82. For `COc1cc(C(=O)N(C)C)ccc1NC(=O)[C@@H]1N[C@@H](CC(C)(C)C)[C@](C#N)(c2ccc(Cl)cc2F)[C@H]1c1cccc(Cl)c1F` [Example 27, (2R,3S,4R,5S)-4-(4-Chloro-2-fluoro-phenyl)-3-(3-chloro-2-fluoro-phenyl)-4-cyano-5-(2,2-dimethyl-propyl)-pyrrolidine-2-carboxylic acid (4-dimethylcarbamoyl-2-methoxy-phenyl)-amide], the pIC50 is 7.89. The result for `COc1cc(C(=O)OCC(=O)N[C@@H](CCC(=O)O)C(=O)O)ccc1NC(=O)[C@@H]1N[C@@H](CC(C)(C)C)[C@](C#N)(c2ccc(Cl)cc2F)[C@H]1c1cccc(Cl)c1F` [Example 71, (S)-2-[2-(4-{[(2R,3S,4R,5S)-4-(4-Chloro-2-fluoro-phenyl)-3-(3-chloro-2-fluoro-phenyl)-4-cyano-5-(2,2-dimethyl-propyl)-pyrrolidine-2-carbonyl]-amino}-3-methoxy-benzoyloxy)-acetylamino]-pentanedioic acid] reads 8.23; that for `COc1cc(C(=O)OC(C)CN2CCOCC2)ccc1NC(=O)[C@@H]1N[C@@H](CC(C)(C)C)[C@](C#N)(c2ccc(Cl)cc2F)[C@H]1c1cccc(Cl)c1F` (stereo partly drawn) [Example 21, 4-{[(2R,3S,4R,5S)-4-(4-Chloro-2-fluoro-phenyl)-3-(3-chloro-2-fluoro-phenyl)-4-cyano-5-(2,2-dimethyl-propyl)-pyrrolidine-2-carbonyl]-amino}-3-methoxy-benzoic acid 1-methyl-2-morpholin-4-yl-ethyl ester], 7.86; that for `COc1cc(C(=O)OCCOC(=O)[C@@H](C)N)ccc1NC(=O)[C@@H]1N[C@@H](CC(C)(C)C)[C@](C#N)(c2ccc(Cl)cc2F)[C@H]1c1cccc(Cl)c1F` [Example 6, 4-{[(2R,3S,4R,5S)-3-(3-Chloro-2-fluoro-phenyl)-4-(4-chloro-2-fluoro-phenyl)-4-cyano-5-(2,2-dimethyl-propyl)-pyrrolidine-2-carbonyl]-amino}-3-methoxy-benzoic acid 2-((R)-2-amino-propionyloxy)-ethyl ester], 7.43. The result for `COc1cc(C(=O)NC(C)CO)ccc1NC(=O)[C@@H]1N[C@@H](CC(C)(C)C)[C@](C#N)(c2ccc(Cl)cc2F)[C@H]1c1cccc(Cl)c1F` (mixture of isomers) [Example 14, Rac-(2R,3S,4R,5S)-4-(4-Chloro-2-fluoro-phenyl)-3-(3-chloro-2-fluoro-phenyl)-4-cyano-5-(2,2-dimethyl-propyl)-pyrrolidine-2-carboxylic acid [4-(2-hydroxy-1-methyl-ethylcarbamoyl)-2-methoxy-phenyl]-amide] reads 8.17; that for `COC(=O)CC[C@@H](NC(=O)c1ccc(NC(=O)[C@@H]2N[C@@H](CC(C)(C)C)[C@](C#N)(c3ccc(Cl)cc3F)[C@H]2c2cccc(Cl)c2F)c(OC)c1)C(=O)OC` [Example 53, (R)-2-(4-{[(2R,3S,4R,5S)-4-(4-Chloro-2-fluoro-phenyl)-3-(3-chloro-2-fluoro-phenyl)-4-cyano-5-(2,2-dimethyl-propyl)-pyrrolidine-2-carbonyl]-amino}-3-methoxy-benzoylamino)-pentanedioic acid dimethyl ester, hydrochloride], 7.90. Then `COc1cc(C(=O)OCC(CO)CO)ccc1NC(=O)[C@@H]1N[C@@H](CC(C)(C)C)[C@](C#N)(c2ccc(Cl)cc2F)[C@H]1c1cccc(Cl)c1F` [Example 9, 3-Hydroxy-2-(hydroxymethyl)propyl 4-((2R,3S,4R,5S)-3-(3-chloro-2-fluorophenyl)-4-(4-chloro-2-fluorophenyl)-4-cyano-5-neopentylpyrrolidine-2-carboxamido)-3-methoxybenzoate], with 7.92. As for `COc1cc(C(=O)OCCOC(=O)[C@@H](NC(=O)[C@H](C)N(C)C(=O)OC(C)(C)C)C(C)C)ccc1NC(=O)[C@@H]1N[C@@H](CC(C)(C)C)[C@](C#N)(c2ccc(Cl)cc2F)[C@H]1c1cccc(Cl)c1F` [Example 33, 4-{[(2R,3S,4R,5S)-4-(4-Chloro-2-fluoro-phenyl)-3-(3-chloro-2-fluoro-phenyl)-4-cyano-5-(2,2-dimethyl-propyl)-pyrrolidine-2-carbonyl]-amino}-3-methoxy-benzoic acid 2-[(S)-3-methyl-2-((S)-2-tert-butoxycarbonyl-methylamino-propionylamino)-butyryloxy]-ethyl ester], the pIC50 is 7.70. Then `COc1cc(C(=O)OCCC(=O)O)ccc1NC(=O)[C@@H]1N[C@@H](CC(C)(C)C)[C@](C#N)(c2ccc(Cl)cc2F)[C@H]1c1cccc(Cl)c1F` [Example 38, 4-{[(2R,3S,4R,5S)-4-(4-Chloro-2-fluoro-phenyl)-3-(3-chloro-2-fluoro-phenyl)-4-cyano-5-(2,2-dimethyl-propyl)-pyrrolidine-2-carbonyl]-amino}-3-methoxy-benzoic acid 2-carboxy-ethyl ester], with 7.99; and `COc1cc(C(=O)OCCOCCOCCOCCOCCOCCO)ccc1NC(=O)[C@@H]1N[C@@H](CC(C)(C)C)[C@](C#N)(c2ccc(Cl)cc2F)[C@H]1c1cccc(Cl)c1F` [Example 52, 4-{[(2R,3S,4R,5S)-4-(4-Chloro-2-fluoro-phenyl)-3-(3-chloro-2-fluoro-phenyl)-4-cyano-5-(2,2-dimethyl-propyl)-pyrrolidine-2-carbonyl]-amino}-3-methoxy-benzoic acid 2-[2-(2-{2-[2-(2-hydroxy-ethoxy)-ethoxy]-ethoxy}-ethoxy)-ethoxy]-ethyl ester, hydrochloride], with 8.00; and `COc1cc(C(=O)OCCN2CCN(C)CC2)ccc1NC(=O)[C@@H]1N[C@@H](CC(C)(C)C)[C@](C#N)(c2ccc(Cl)cc2F)[C@H]1c1cccc(Cl)c1F` [Example 19, 4-{[(2R,3S,4R,5S)-4-(4-Chloro-2-fluoro-phenyl)-3-(3-chloro-2-fluoro-phenyl)-4-cyano-5-(2,2-dimethyl-propyl)-pyrrolidine-2-carbonyl]-amino}-3-methoxy-benzoic acid 2-(4-methyl-piperazin-1-yl)-ethyl ester], with 8.25.

For `COc1cc(C(=O)NN)ccc1NC(=O)[C@@H]1N[C@@H](CC(C)(C)C)[C@](C#N)(c2ccc(Cl)cc2F)[C@H]1c1cccc(Cl)c1F` [Example 39, (2R,3S,4R,5S)-4-(4-Chloro-2-fluoro-phenyl)-3-(3-chloro-2-fluoro-phenyl)-4-cyano-5-(2,2-dimethyl-propyl)-pyrrolidine-2-carboxylic acid (4-hydrazinocarbonyl-2-methoxy-phenyl)-amide], the pIC50 was 7.44.

Consider `COc1cc(C(=O)OCCOCCOCCOCCOCCO)ccc1NC(=O)[C@@H]1N[C@@H](CC(C)(C)C)[C@](C#N)(c2ccc(Cl)cc2F)[C@H]1c1cccc(Cl)c1F` [Example 50, 4-{[(2R,3S,4R,5S)-4-(4-Chloro-2-fluoro-phenyl)-3-(3-chloro-2-fluoro-phenyl)-4-cyano-5-(2,2-dimethyl-propyl)-pyrrolidine-2-carbonyl]-amino}-3-methoxy-benzoic acid 2-(2-{2-[2-(2-hydroxy-ethoxy)-ethoxy]-ethoxy}-ethoxy)-ethyl ester, hydrochloride], for which the negative logarithm of the IC50 (pIC50) was 8.04.
